The target in assay [1] is T1, Type I 5α-Reductase from Human Scalp (Homo sapiens, UniProt P18405).
T1 construct: Scalp punch biopsies from graft recipient sites were obtained from human hair transplant procedures; from tissue; host or cells: human scalp punch biopsies (hair transplant graft recipient sites), homogenate, 100,000×g pellet
T1 sequence (P18405 1-259): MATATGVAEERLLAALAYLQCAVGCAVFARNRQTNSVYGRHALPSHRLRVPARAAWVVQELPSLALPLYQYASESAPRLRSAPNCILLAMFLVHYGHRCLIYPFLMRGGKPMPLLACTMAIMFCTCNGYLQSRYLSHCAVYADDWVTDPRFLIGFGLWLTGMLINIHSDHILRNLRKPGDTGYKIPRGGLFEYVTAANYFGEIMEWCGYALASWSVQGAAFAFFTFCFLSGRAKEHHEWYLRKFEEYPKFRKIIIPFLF
As to the kind of experiment: Human Type I 5α-reductase assay (conversion of [3H]-testosterone to 5α-reduced metabolites). In kind it is biochemical. The note with it: 50 nM [3H]-testosterone, pH 7.5, 25°, 180 min, compared to control reaction mixtures; for inhibition at 0.3 µM: pH 7.5, 0.3 μM, read-out: percent inhibition of Type I AR; for percent inhibition of Type I AR: 0.3 μM.

For assay [2], the target named is T2, Type II 5α-Reductase from Human Prostate (Homo sapiens, UniProt P31213).
T2 construct: The same procedure as above was used for preparations using tissue from prostate surgery; from tissue; host or cells: human prostate tissue from surgery, homogenate, 100,000×g pellet
T2 sequence (P31213 1-254): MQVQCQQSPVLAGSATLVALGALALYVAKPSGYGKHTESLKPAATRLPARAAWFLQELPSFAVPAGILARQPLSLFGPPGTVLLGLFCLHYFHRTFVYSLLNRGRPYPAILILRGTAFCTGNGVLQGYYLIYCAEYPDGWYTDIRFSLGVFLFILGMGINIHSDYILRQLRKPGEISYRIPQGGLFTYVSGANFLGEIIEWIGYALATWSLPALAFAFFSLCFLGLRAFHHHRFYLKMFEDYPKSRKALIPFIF
As to the kind of experiment: Human Type II 5α-reductase assay (conversion of [3H]-testosterone to 5α-reduced metabolites). In kind it is biochemical. The note with it: sodium acetate pH 5.5, 25°, 30 min, compared to control reaction mixtures; for inhibition at 0.3 µM: pH 5.5, 0.3 μM, read-out: percent inhibition of Type II AR; for percent inhibition of Type II AR: 0.3 μM.

Results on 23 compounds are retold here after US5622962A, “5α-reductase inhibitors” (priority 1995, dated 1997).

Several values for one entry are separate records, joined by “and”; a condition that tells them apart may be missing. Identical values can stand only once.

The inhibition is the drop in the measured response relative to a control, in per cent. In the case of `CN1C(=O)CC[C@]2(C)c3ccc(C(=O)NCc4ccccc4)cc3CC[C@@H]12` [Example 146, (+)-(4aR)-(10bR)-4-methyl-8-(benzylcarboxamido)-10b-methyl-1,2,3,4,4a,5,6,10b-octahydrobenzo[f]quinolin-3-one], the inhibition at 0.3 µM in assay [1] turned out to be 13%; in assay [2], 32%.

For `CN1C(=O)CC[C@]2(C)c3ccc(C(=O)OC(c4ccccc4)c4ccccc4)cc3CC[C@@H]12` [Example 147, (4aR)-(10bR)-4,10b-dimethyl-8-diphenylmethoxycarbonyl-1,2,3,4,4a,5,6,10b-octahydrobenzo[f]quinolin-3-one], the inhibition at 0.3 µM was 35% in assay [1] and 83% in assay [2].

As to `CN1C(=O)CC[C@]2(C)c3ccc(C(=O)NC(c4ccccc4)c4ccccc4)cc3CC[C@@H]12` [Example 148, (4aR)-(10bR)-4,10b-dimethyl-8-diphenylmethylcarboxamido-1,2,3,4,4a,5,6,10b-octahydrobenzo[f]quinolin-3-one], the inhibition at 0.3 µM in assay [1] was determined as 2%; in assay [2], 12%.

Turning to `CN1C(=O)CC[C@]2(C)c3ccc(Sc4nccs4)cc3CC[C@@H]12` [Example 149, (+)-(4aR)-(10bR)-4-methyl-8-(2-thiazoylthio)-10b-methyl-1,2,3,4,4a,5,6,10b-octahydrobenzo[f]quinolin-3-one], the values for the inhibition at 0.3 µM in assay [1] and in assay [2] were 58% and 33%, respectively.

Take `CN1C(=O)CC[C@]2(C)c3ccc(Sc4nc5ccccc5o4)cc3CC[C@@H]12` [Example 150, (+)-(4aR)-(10bR)-4-methyl-8-(2-benzoxazolylthio)-10b-methyl-1,2,3,4,4a,5,6,10b-octahydrobenzo[f]quinolin-3-one]: the inhibition at 0.3 µM came out at 67% in assay [1] and 69% in assay [2].

On to `CN1C(=O)CC[C@]2(C)c3ccc(Sc4ncccn4)cc3CC[C@@H]12` [Example 151, (+)-(4aR)-(10bR)-4-methyl-8-(2-pyrimidinylthio)-10b-methyl-1,2,3,4,4a,5,6,10b-octahydrobenzo[f]quinolin-3-one], for which the inhibition at 0.3 µM in assay [1] stood at 31%; in assay [2] it was 28%.

For the compound `CN1C(=O)CC[C@]2(C)c3ccc(Sc4cnccn4)cc3CC[C@@H]12` [Example 152, (+)-(4aR)-(10bR)-4-methyl-8-(2-pyrazinylthio)-10b-methyl-1,2,3,4,4a,5,6,10b-octahydrobenzo[f]quinolin-3-one], the inhibition at 0.3 µM in assay [1] was found to be 47%; in assay [2], 10%.

Take `CN1C(=O)CC[C@]2(C)c3ccc(Sc4cnc5ccccc5n4)cc3CC[C@@H]12` [Example 153, (+)-(4aR)-(10bR)-4-methyl-8-(2-quinoxalinylthio)-10b-methyl-1,2,3,4,4a,5,6,10b-octahydrobenzo[f]quinolin-3-one]: the inhibition at 0.3 µM in assay [1] turned out to be 49%; in assay [2] it was 71%.

Consider `CN1C(=O)CC[C@]2(C)c3ccc(Sc4nnnn4-c4ccccc4)cc3CC[C@@H]12` [Example 154, (+)-(4aR)-(10bR)-4-methyl-8-(2-[3-phenyl]tetrazoylthio)-10b-methyl-1,2,3,4,4a,5,6,10b-octahydrobenzo[f]quinolin-3-one], for which the inhibition at 0.3 µM in assay [1] was 56%; in assay [2], 25%.

Turning to `CN1C(=O)CC[C@]2(C)c3ccc(Sc4ccc(C(F)(F)F)cn4)cc3CC[C@@H]12` [Example 155, (+)-(4aR)-(10bR)-4-methyl-8-(2-[5-trifluoromethyl]pyridylthio)-10b-methyl-1,2,3,4,4a,5,6,10b-octahydrobenzo[f]-quinolin-3-one], the figures for the inhibition at 0.3 µM in assay [1] and in assay [2] were 58% and 60%, respectively.

As to `CN1C(=O)CC[C@]2(C)c3ccc(Sc4n[nH]c5ccccc45)cc3CC[C@@H]12` [Example 156, (+)-(4aR)-(10bR)-4-methyl-8-(3-indazolylthio)-10b-methyl-1,2,3,4,4a,5,6,10b-octahydrobenzo[f]quinolin-3-one], the inhibition at 0.3 µM in assay [1] stood at 71%; in assay [2] it was 70%.

For `CC(C)c1cccc2sc(Sc3ccc4c(c3)CC[C@H]3N(C)C(=O)CC[C@]43C)nc12` [Example 157, (+)-(4aR)-(10bR)-4-methyl-8-(2-[4-isopropyl]benzothiazolylthio)-10b-methyl-1,2,3,4,4a,5,6,10b-octahydrobenzo[f]-quinolin-3-one], the results for the inhibition at 0.3 µM in assay [1] and in assay [2] were 88% and 79%, respectively.

As for `CN1C(=O)CC[C@]2(C)c3ccc(Sc4nc5ccc(Cl)cc5s4)cc3CC[C@@H]12` [Example 158, (+)-(4aR)-(10bR)-4-methyl-8-(6-chloro-2-benzothiazolylthio)-10b-methyl-1,2,3,4,4a,5,6,10b-octahydrobenzo[f]quinolin-3-one], the inhibition at 0.3 µM amounted to 78% in assay [1] and 63% in assay [2].

As for `Cc1cccc2sc(Sc3ccc4c(c3)CC[C@H]3N(C)C(=O)CC[C@]43C)nc12` [Example 159, (+)-(4aR)-(10bR)-4-methyl-8-(4-methyl-2-benzothiazolylthio)-10b-methyl-I, 2,3,4,4a,5,6,10b-octahydrobenzo[f]quinolin-3-one], the “percent inhibition of Type I AR” value in assay [1] was determined as 87%. In assay [2], the “percent inhibition of Type II AR” value is listed as 83% and the inhibition at 0.3 µM was 87%.

On to `CN1C(=O)CC[C@]2(C)c3ccc(Sc4nc5cc([N+](=O)[O-])ccc5s4)cc3CC[C@@H]12` [Example 160, (+)-(4aR)-(10bR)-4-methyl-8-(5-nitro-2-benzothiazolylthio)-10b-methyl-1,2,3,4,4a,5,6,10b-octahydrobenzo[f]quinolin-3-one], for which the inhibition at 0.3 µM is 61% in assay [1] and 38% in assay [2].

In the case of `COc1ccc2nc(Sc3ccc4c(c3)CC[C@H]3N(C)C(=O)CC[C@]43C)sc2c1` [Example 161, (+)-(4aR)-(10bR)-4-methyl-8-(6-methoxy-2-benzothiazolylthio)-10b-methyl-1,2,3,4,4a,5,6,10b-octahydrobenzo[f]quinolin-3-one], the inhibition at 0.3 µM in assay [1] worked out at 71%; in assay [2] it was 51%.

As to `CN1C(=O)CC[C@]2(C)c3ccc(Sc4nc5c(F)cccc5s4)cc3CC[C@@H]12` [Example 162, (+)-(4aR)-(10bR)-4-methyl-8-(4-fluoro-2-benzothiazolylthio)-10b-methyl-1,2,3,4,4a,5,6,10b-octahydrobenzo[f]quinolin-3-one], the inhibition at 0.3 µM is 79% in assay [1] and 87% in assay [2].

In the case of `CN1C(=O)CC[C@]2(C)c3ccc(Sc4nc5c(ccc6ccccc65)s4)cc3CC[C@@H]12` [Example 163, (+)-(4aR)-(10bR)-4-methyl-8-(2-naphtho<1,2-d>-thiazolylthio)-10b-methyl-1,2,3,4,4a,5,6,10b-octahydrobenzo[f]-quinolin-3-one], the results for the inhibition at 0.3 µM in assay [1] and in assay [2] were 80% and 86%, respectively.

As for `CN1C(=O)CC[C@]2(C)c3ccc(Sc4nc5c(Cl)cccc5s4)cc3CC[C@@H]12` [Example 164, (+)-(4aR)-(10bR)-4-methyl-8-(4-chloro-2-benzothiazolylthio)-10b-methyl-1,2,3,4,4a,5,6,10b-octahydrobenzo[f]quinolin-3-one], in assay [1], the “percent inhibition of Type I AR” value was determined as 87% and the inhibition at 0.3 µM amounted to 85%. In addition, in assay [2], the “percent inhibition of Type II AR” value was 85% and 79%; the inhibition at 0.3 µM worked out at 86%.

Turning to `CN1C(=O)CC[C@]2(C)c3ccc(Sc4nc5cc(Cl)c(Cl)cc5s4)cc3CC[C@@H]12` [Example 165, (+)-(4aR)-(10bR)-4-methyl-8-(5,6-dichloro-2-benzothiazolylthio)-10b-methyl-1,2,3,4,4a,5,6,10b-octahydrobenzo[f]-quinolin-3-one], the inhibition at 0.3 µM in assay [1] was 61%; in assay [2] it was 74%.

For the compound `CN1C(=O)CC[C@]2(C)c3ccc(Sc4ccc([N+](=O)[O-])cn4)cc3CC[C@@H]12` [Example 166, (+)-(4aR)-(10bR)-4-methyl-8-(5-nitro-2-pyridinylthio)-10b-methyl-1,2,3,4,4a,5,6,10b-octahydrobenzo[f]quinolin-3-one], the inhibition at 0.3 µM was 50% in assay [1] and 49% in assay [2].

On to `CN1C(=O)CC[C@]2(C)c3ccc(Sc4ncccc4[N+](=O)[O-])cc3CC[C@@H]12` [Example 167, (+)-(4aR)-(10bR)-4-methyl-8-(3-nitro-2-pyridinylthio)-10b-methyl-1,2,3,4,4a,5,6,10b-octahydrobenzo[f]quinolin-3-one], for which the results for the inhibition at 0.3 µM in assay [1] and in assay [2] were 62% and 31%, respectively.

In the case of `CN1C(=O)CC[C@]2(C)c3ccc(Sc4ccc5cc([N+](=O)[O-])ccc5n4)cc3CC[C@@H]12` [Example 168, (+)-(4aR)-(10bR)-4-methyl-8-(6-nitro-2-quinolinylthio)-10b-methyl-1,2,3,4,4a,5,6,10b-octahydrobenzo[f]quinolin-3-one], the inhibition at 0.3 µM in assay [1] was determined as 85%; in assay [2], 41%.
